Measurements: the NIST ThermoML archive (doi:10.1016/j.jct.2004.09.018)
Numbers after ± are expanded uncertainties.

What was measured:
[1] = Crystal
[2] = Molar enthalpy of transition or fusion; conditions: Crystal
[3] = molar heat capacity at constant pressure; conditions: 101.33 kPa

O=Cc1ccc([N+](=O)[O-])cc1[N+](=O)[O-] [2,4-dinitrobenzaldehyde]
Conditions	Molar enthalpy of transition or fusion [kcal/mol]	Triple point temperature [K]
[1]	–	344.91 ± 0.64
[2]	5.06 ± 0.0669	–

[3]
Conditions	molar heat capacity at constant pressure [J/K/mol]
78.06 K, Crystal	18.67 ± 0.96
80 K, Crystal	19.77 ± 0.99
80.91 K, Crystal	20.32 ± 1
82.54 K, Crystal	21.07 ± 1
85.26 K, Crystal	22.24 ± 1
87.46 K, Crystal	22.9 ± 1.1
89.5 K, Crystal	23.64 ± 1.1
91.38 K, Crystal	24.46 ± 2.8
93.21 K, Crystal	24.83 ± 2.8
94.98 K, Crystal	25.29 ± 2.8
96.7 K, Crystal	25.84 ± 2.8
98.42 K, Crystal	26.88 ± 2.8
100.08 K, Crystal	26.98 ± 2.8
101.76 K, Crystal	28.11 ± 2.8
103.39 K, Crystal	28.44 ± 2.8
105 K, Crystal	28.62 ± 2.8
106.58 K, Crystal	28.9 ± 2.8
108.14 K, Crystal	29.07 ± 2.8
109.68 K, Crystal	30.37 ± 2.9
111.2 K, Crystal	30.49 ± 2.9
112.69 K, Crystal	30.46 ± 2.9
114.18 K, Crystal	31.08 ± 2.9
115.64 K, Crystal	31.43 ± 2.9
117.09 K, Crystal	32.01 ± 2.9
118.49 K, Crystal	32.5 ± 2.9
119.86 K, Crystal	32.88 ± 2.9
121.24 K, Crystal	33.37 ± 2.9
122.59 K, Crystal	33.47 ± 2.9
123.93 K, Crystal	34.53 ± 2.9
125.27 K, Crystal	34.53 ± 2.9
126.61 K, Crystal	35.11 ± 2.9
127.96 K, Crystal	35.79 ± 2.9
129.3 K, Crystal	36.37 ± 2.9
130.69 K, Crystal	36.18 ± 2.9
132.09 K, Crystal	36.27 ± 2.9
133.43 K, Crystal	37.34 ± 2.9
134.81 K, Crystal	37.63 ± 2.9
136.17 K, Crystal	37.14 ± 2.9
137.59 K, Crystal	37.92 ± 2.9
138.97 K, Crystal	37.37 ± 2.9
140.34 K, Crystal	37.47 ± 2.9
141.69 K, Crystal	37.08 ± 2.9
143.04 K, Crystal	37.04 ± 2.9
144.37 K, Crystal	37.54 ± 2.9
145.68 K, Crystal	37.82 ± 2.9
146.97 K, Crystal	37.82 ± 2.9
148.25 K, Crystal	38.92 ± 3
149.52 K, Crystal	39.16 ± 3
150.78 K, Crystal	38.26 ± 3
152.03 K, Crystal	39.82 ± 3
153.25 K, Crystal	40.53 ± 3
154.49 K, Crystal	40.73 ± 3
155.72 K, Crystal	40.92 ± 3
156.96 K, Crystal	41.6 ± 3
158.19 K, Crystal	41.6 ± 3
159.41 K, Crystal	42.39 ± 3
160.67 K, Crystal	43.2 ± 3
161.9 K, Crystal	43.2 ± 3
163.15 K, Crystal	43.8 ± 3
164.37 K, Crystal	44.11 ± 3
165.6 K, Crystal	44.7 ± 3
166.79 K, Crystal	45.28 ± 3
167.97 K, Crystal	45.57 ± 3
169.2 K, Crystal	45.95 ± 3
171.64 K, Crystal	46.17 ± 3.1
175.32 K, Crystal	46.7 ± 3.1
178.53 K, Crystal	47.5 ± 3.1
181.57 K, Crystal	47.76 ± 3.1
184.51 K, Crystal	49.49 ± 3.1
187.41 K, Crystal	49.49 ± 3.1
190.27 K, Crystal	51.22 ± 3.1
193.04 K, Crystal	52.12 ± 3.1
195.57 K, Crystal	52.73 ± 3.1
198.42 K, Crystal	54.38 ± 3.2
201.09 K, Crystal	55.42 ± 3.2
202.7 K, Crystal	55.05 ± 3.2
206.17 K, Crystal	56.4 ± 3.2
208.82 K, Crystal	57.15 ± 3.2
211.47 K, Crystal	56.9 ± 3.2
214.01 K, Crystal	58.62 ± 3.2
216.52 K, Crystal	60.85 ± 3.2
219.02 K, Crystal	60.11 ± 3.2
221.6 K, Crystal	60.6 ± 3.2
224.29 K, Crystal	61.84 ± 3.2
226.79 K, Crystal	62.82 ± 3.3
229.3 K, Crystal	62.82 ± 3.3
231.81 K, Crystal	64.06 ± 3.3
234.37 K, Crystal	65.17 ± 3.3
236.8 K, Crystal	66.36 ± 3.3
239.16 K, Crystal	67.38 ± 3.3
241.63 K, Crystal	68.9 ± 3.3
243.96 K, Crystal	70.6 ± 3.4
246.15 K, Crystal	72.46 ± 3.4
248.51 K, Crystal	72.63 ± 3.4
250.87 K, Crystal	73.64 ± 3.4
253.13 K, Crystal	75.85 ± 3.4
255.45 K, Crystal	78.05 ± 3.4
257.75 K, Crystal	79.41 ± 3.5
260 K, Crystal	80.42 ± 3.5
262.29 K, Crystal	81.1 ± 3.5
265.37 K, Crystal	83.47 ± 3.5
266.84 K, Crystal	84.66 ± 3.5
269.06 K, Crystal	86.52 ± 3.6
271.28 K, Crystal	88.55 ± 3.6
273.5 K, Crystal	90.93 ± 3.6
275.72 K, Crystal	93.3 ± 3.6
277.9 K, Crystal	94.99 ± 3.7
280.12 K, Crystal	96.35 ± 3.7
282.24 K, Crystal	98.88 ± 3.7
284.45 K, Crystal	100.75 ± 3.7
286.53 K, Crystal	101.94 ± 3.7
288.75 K, Crystal	103.12 ± 3.8
290.86 K, Crystal	105.15 ± 3.8
293.05 K, Crystal	105.66 ± 3.8
295.09 K, Crystal	108.2 ± 3.8
297.17 K, Crystal	110.92 ± 3.8
299.24 K, Crystal	112.78 ± 3.9
301.25 K, Crystal	116 ± 3.9
303.25 K, Crystal	118.56 ± 3.9
305.33 K, Crystal	120.3 ± 4
307.3 K, Crystal	122.62 ± 4
309.27 K, Crystal	124.17 ± 4
311.25 K, Crystal	125.72 ± 4
313.22 K, Crystal	128.04 ± 4.1
315.24 K, Crystal	130.3 ± 4.1
317.17 K, Crystal	132.69 ± 4.1
319.12 K, Crystal	135.33 ± 4.2
321.07 K, Crystal	136.59 ± 4.2
322.98 K, Crystal	138.88 ± 4.2
324.91 K, Crystal	141.63 ± 4.2
326.82 K, Crystal	144.41 ± 4.3
328.67 K, Crystal	147.92 ± 4.3
330.55 K, Crystal	151.7 ± 4.4
332.43 K, Crystal	154.77 ± 4.4
334.19 K, Crystal	158.54 ± 4.4
335.92 K, Crystal	161.76 ± 4.5
337.65 K, Crystal	165.54 ± 4.5
339.38 K, Crystal	169.32 ± 4.6
341.03 K, Crystal	173.09 ± 4.6
348.1 K, Liquid	300.29 ± 6.2
349.69 K, Liquid	307.08 ± 6.3
351.29 K, Liquid	313.48 ± 6.4
352.84 K, Liquid	317.48 ± 6.4
354.37 K, Liquid	327.47 ± 6.5
355.87 K, Liquid	334.28 ± 6.6
357.34 K, Liquid	342.27 ± 6.7
358.75 K, Liquid	344.27 ± 6.7
360.22 K, Liquid	349.07 ± 6.8
361.51 K, Liquid	354.26 ± 6.9
362.75 K, Liquid	357.86 ± 6.9
363.93 K, Liquid	367.87 ± 7
365.07 K, Liquid	373.86 ± 7.1
366.13 K, Liquid	381.06 ± 7.2
367.12 K, Liquid	389.86 ± 7.3
